Test results from ChEMBL document CHEMBL3046409, “Studies on radioprotective and antiviral activities of some bischalcone derivatives” (Med Chem Res, 2012).

How the values were obtained:
[1] = Cytotoxicity against Chlorocebus aethiops (African green monkey) Vero cells assessed as maximum non-toxic concentration after 24 hr; format: cell-based; details: chlorocebus sabaeus, read-out: Activity
Camelpox virus = assay: Antiviral activity against Camelpox virus infected African green monkey Vero cells assessed as reduction of viral titer after 48 hr; format: functional
Buffalopox virus = assay: Antiviral activity against Buffalopox virus infected African green monkey Vero cells assessed as reduction of viral titer after 48 hr; format: functional

In the case of `O=C1/C(=C/c2ccc(F)cc2)CC/C1=C\c1ccc(F)cc1`, the MNTC at 24 h [1] is reported as 0.0833 µg/mL, the “inhibition (INH)” value (Camelpox virus) is reported as 54.29% and the “inhibition (INH)” value (Buffalopox virus) is reported as 73.69%.
